Measured values: patent US20260034119A1, “5-METHOXY-N,N-[…][…], THEIR […], AND METHODS FOR TREATMENT OF NEUROLOGICAL, […], AND SUBSTANCE USE DISORDERS” (priority 2023, published 2026)
Numbering of substitutions follows the chain as printed. pEC50: −log10 of the molar value. Where “and” joins values, the source holds several entries; their conditions need not be identical. Equal entries are not always repeated. Entries after “also recorded” stand apart in the source; their conditions may differ. Where two headings read alike, the source gives them in different places.

Assays:
MAO-A = molecular target: T1, MAO-A (Homo sapiens, UniProt P21397); test: MAO-A activity (metabolism of compound); details: versus the DMT analogs
T1 sequence (P21397 1-527): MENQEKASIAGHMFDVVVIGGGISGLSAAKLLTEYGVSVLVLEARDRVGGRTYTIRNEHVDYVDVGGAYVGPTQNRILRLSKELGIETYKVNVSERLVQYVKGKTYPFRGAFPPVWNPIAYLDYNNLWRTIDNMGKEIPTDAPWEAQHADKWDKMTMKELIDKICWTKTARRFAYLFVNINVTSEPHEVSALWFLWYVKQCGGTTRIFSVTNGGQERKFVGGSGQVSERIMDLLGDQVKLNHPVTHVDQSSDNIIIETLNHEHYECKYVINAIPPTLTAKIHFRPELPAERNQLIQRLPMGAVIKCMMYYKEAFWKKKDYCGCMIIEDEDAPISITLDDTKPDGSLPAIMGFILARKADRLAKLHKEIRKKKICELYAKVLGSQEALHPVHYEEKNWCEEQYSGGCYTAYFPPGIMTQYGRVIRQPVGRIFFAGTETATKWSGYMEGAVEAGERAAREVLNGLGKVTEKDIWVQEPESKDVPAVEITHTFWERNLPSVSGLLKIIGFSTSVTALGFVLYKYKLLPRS

5-HT2A [1] = molecular target: T2, 5-HT2A (Homo sapiens, UniProt P28223); test: cell-based; details: for EC50: EC50 (nM), Gq BRET, 5-HT2A WT
T2 sequence (P28223 whole entry): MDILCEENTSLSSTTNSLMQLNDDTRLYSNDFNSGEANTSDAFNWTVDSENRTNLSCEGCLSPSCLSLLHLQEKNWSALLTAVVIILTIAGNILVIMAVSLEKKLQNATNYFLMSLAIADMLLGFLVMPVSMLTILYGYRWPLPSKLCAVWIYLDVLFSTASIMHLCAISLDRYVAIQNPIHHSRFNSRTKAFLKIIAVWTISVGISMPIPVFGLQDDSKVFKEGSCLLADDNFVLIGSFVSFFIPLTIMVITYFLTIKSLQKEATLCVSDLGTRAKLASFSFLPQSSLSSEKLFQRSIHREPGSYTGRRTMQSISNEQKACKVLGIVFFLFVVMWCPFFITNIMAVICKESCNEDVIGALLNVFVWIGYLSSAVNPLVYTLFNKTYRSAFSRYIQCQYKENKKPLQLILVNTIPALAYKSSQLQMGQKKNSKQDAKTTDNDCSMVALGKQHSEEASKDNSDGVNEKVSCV

5-HT1A N386V = molecular target: T3, 5-HT1A N386V (Homo sapiens, UniProt P08908, N386V); test: Gi1 BRET at mutant 5-HT1A N386V; assay type: cell-based
T3 construct: expressed in transfected cells; host or cells: HEK293-T
T3 sequence (P08908 1-422 N386V): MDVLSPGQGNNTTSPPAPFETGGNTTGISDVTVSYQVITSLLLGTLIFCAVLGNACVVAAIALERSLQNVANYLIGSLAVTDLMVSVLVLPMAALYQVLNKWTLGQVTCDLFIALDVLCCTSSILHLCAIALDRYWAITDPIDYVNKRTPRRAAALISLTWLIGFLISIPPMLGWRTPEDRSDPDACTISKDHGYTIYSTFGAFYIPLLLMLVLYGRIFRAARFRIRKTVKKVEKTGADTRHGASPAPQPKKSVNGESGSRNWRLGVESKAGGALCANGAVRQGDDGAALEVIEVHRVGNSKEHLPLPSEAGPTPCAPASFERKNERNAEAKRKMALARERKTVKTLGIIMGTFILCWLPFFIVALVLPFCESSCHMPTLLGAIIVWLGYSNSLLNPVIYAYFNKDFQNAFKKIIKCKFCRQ

5-HT1A A365N = molecular target: T4, 5-HT1A A365N (Homo sapiens, UniProt P08908, A365N); test: Gi1 BRET at mutant 5-HT1A A365N; assay type: cell-based; details: for EC50: EC50 (nM), Gi1 BRET
T4 construct: expressed in transfected cells; host or cells: HEK293-T
T4 sequence (P08908 1-422 A365N): T3 sequence (P08908 1-422 N386V) with A365N, V386N

5-HT1A [2] = molecular target: T5, 5-HT1A (Homo sapiens, UniProt P08908); test: BRET signaling assay: 5-HT1A-mediated activation of heterotrimeric Gi1 (TRUPATH, HEK293-T)
T5 sequence (P08908 whole entry): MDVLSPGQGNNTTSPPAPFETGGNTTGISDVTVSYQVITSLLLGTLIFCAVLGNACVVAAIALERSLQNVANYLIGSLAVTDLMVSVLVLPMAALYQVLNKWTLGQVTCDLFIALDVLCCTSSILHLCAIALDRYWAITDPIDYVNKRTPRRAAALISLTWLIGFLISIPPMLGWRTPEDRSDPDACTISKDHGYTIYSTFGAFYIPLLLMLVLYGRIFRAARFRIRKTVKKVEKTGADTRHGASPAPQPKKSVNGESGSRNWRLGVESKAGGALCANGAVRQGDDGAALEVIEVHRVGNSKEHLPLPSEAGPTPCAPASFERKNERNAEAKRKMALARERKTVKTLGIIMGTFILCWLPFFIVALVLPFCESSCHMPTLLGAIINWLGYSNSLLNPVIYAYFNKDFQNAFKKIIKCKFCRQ

5-HT2A V366N = molecular target: T6, 5-HT2A V366N (Homo sapiens, UniProt P28223, V366N); test: Gq BRET at mutant 5-HT2A V366N; assay type: cell-based
T6 construct: expressed in transfected cells; host or cells: HEK293-T
T6 sequence (P28223 whole entry V366N): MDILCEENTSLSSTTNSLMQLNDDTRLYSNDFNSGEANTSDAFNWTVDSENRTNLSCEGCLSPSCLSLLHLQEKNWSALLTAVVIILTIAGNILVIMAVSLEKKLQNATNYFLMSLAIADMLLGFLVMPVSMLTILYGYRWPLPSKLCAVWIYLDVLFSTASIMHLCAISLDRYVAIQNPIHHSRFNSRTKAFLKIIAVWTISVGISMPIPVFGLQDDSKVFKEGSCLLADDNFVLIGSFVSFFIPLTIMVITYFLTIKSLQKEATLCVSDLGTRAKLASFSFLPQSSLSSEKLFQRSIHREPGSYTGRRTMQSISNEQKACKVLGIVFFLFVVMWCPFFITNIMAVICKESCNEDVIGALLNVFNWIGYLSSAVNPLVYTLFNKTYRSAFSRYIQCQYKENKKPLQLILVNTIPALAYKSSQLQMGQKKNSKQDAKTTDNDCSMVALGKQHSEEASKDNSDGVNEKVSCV

5-HT2A [3] = molecular target: T2, 5-HT2A
human 5-HT1A = molecular target: T7, human 5-HT1A (Homo sapiens, UniProt P08908); test: cell-based
T7 sequence (P08908 1-422): T3 sequence (P08908 1-422 N386V) with V386N

[4] = Microsomal stability, human liver microsomes; assay type: in vitro ADME; details: versus the DMT analogs
Protocol: Microsomal incubations were carried out in 96-well plates in 5 aliquots of 30 μL each (one for each time point). Liver microsomal incubation medium comprised of phosphate buffer (100 mM, pH 7.4), MgCl2 (3.3 mM), NADPH (3 mM), glucose-6-phosphate (5.3 mM), glucose-6 phosphate dehydrogenase (0.67 units/ml) with 0.42 mg of liver microsomal protein per ml. In the control reactions the NADPH-cofactor system was substituted with phosphate buffer. Test compounds (2 μM, final solvent concentration 1.6%) were incubated with microsomes at 37° C., shaking at 100 rpm. Each reaction was performed in duplicates. Five time points over 90 minutes were analyzed. The reactions were stopped by adding 5 volumes of methanol containing internal standard to incubation aliquots, followed by protein sedimentation by centrifuging at 5500 rpm for 4 minutes. Supernatants were analyzed using the HPLC system coupled with tandem mass spectrometer. The elimination constant (kel), half-life (t1/2) and intrinsic clearance (Clint) were determined in plot of […] versus time, using linear regression analysis.

C57BL/6J mice = test: Social interaction test after chronic social defeat stress (CSDS); details: one s.c. administration
5-HT1A [5] = molecular target: T5, 5-HT1A; test: cell-based
5-HT2B = 5-HT2B (Homo sapiens, UniProt P41595); test: IP1 functional assay 5-HT2B; assay type: cell-based; details: for Emax: read-out: 5-HT2B (IP1) Emax (%5-HT), Table 3
Sequence of 5-HT2B (P41595 whole entry, species assumed): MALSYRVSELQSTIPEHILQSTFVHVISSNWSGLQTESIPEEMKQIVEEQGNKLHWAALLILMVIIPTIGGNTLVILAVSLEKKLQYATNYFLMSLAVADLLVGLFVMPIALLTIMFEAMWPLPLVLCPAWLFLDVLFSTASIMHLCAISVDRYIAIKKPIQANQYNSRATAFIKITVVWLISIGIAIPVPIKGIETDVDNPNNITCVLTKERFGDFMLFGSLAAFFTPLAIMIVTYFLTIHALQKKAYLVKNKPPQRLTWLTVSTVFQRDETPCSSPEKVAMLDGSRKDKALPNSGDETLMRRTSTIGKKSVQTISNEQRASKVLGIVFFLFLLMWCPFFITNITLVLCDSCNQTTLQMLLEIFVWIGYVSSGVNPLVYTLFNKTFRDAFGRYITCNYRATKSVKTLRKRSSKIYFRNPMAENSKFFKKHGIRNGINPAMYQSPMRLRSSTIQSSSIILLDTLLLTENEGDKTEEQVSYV

5-HT2A [6] = molecular target: T2, 5-HT2A; test: cell-based; set-up: expressed in transfected cells; host or cells: HEK293-T; details: for Emax: read-out: 5-HT2A (IP1) Emax (%5-HT)
[7] = Human plasma protein binding; assay type: in vitro ADME
[8] = Mouse plasma protein binding; assay type: in vitro ADME

Structure (SMILES)	EC50 (5-HT2A [1]) [nM]	EC50 (5-HT1A A365N; 5-HT1A A365N^6.55) [nM]	EC50 (5-HT1A [2]; EC50 (nM), Gi1 BRET, 5-HT1A WT) [nM]	pEC50 (5-HT2A [1])	pEC50 (human 5-HT1A)	microsomal stability in human microsomes [4]	pEC50 (5-HT1A [5])	further results
C=CCN(C)CCc1c[nH]c2ccc(OC)c(F)c12 [4-F, 5-MeO MALT]	–	–	–	–	–	–	–	MAO A metabolism (MAO-A): markedly slower MAO A metabolism versus the DMT analogs
COc1ccc2[nH]cc(CCN3CCCC3)c2c1 [Compound 18, 5-methoxy-N,N-pyrrolidinyl-tryptamine]	81.5	28.9	2.13	–	–	–	–	pEC50 (5-HT1A N386V): 7.60; selectivity for 5-HT1A>5-HT2A (5-HT1A [2]; 5-HT1A Gi BRET vs 5-HT2A Gq BRET): > 38 fold; pEC50 (5-HT1A [2]; Gi BRET EC50): 8.68; increase in 5-HT1A>5-HT2A selectivity (5-HT1A [2]; cyclization of the amine moiety, relative to 5-MeO-DMT): ~38 fold; pEC50 (5-HT2A V366N): 7.26
COc1ccc2[nH]cc(CCN(C)C)c2c1F [Compound 25, 2-(4-fluoro-5-methoxy-1H-indol-3-yl)-N,N-dimethylethane-1-amine]	86.5	–	–	7.06	9.73	–	–	decrease in potency at 5-HT2A (5-HT2A [3]; relative to 5-MeO-DMT): 3 fold; pEC50 (5-HT1A N386V): 8.43; pEC50 (5-HT1A A365N): 7.70; Efficacy as %5HT (SEM) 5-HT1A BRET Gi1 (5-HT1A [2]): 103.5 1.59) %5HT; increase in signaling potency at 5-HT1A (5-HT1A [2]): 14 fold; EC50 (5-HT1A [2]; EC50 (nM)): 1.77 nM; EC50 (5-HT1A [2]; EC50 (nM) 5-HT1A BRET Gi1): 1.77 nM; pEC50 (5-HT2A V366N): 6.41
CCN(C)CCc1c[nH]c2ccc(OC)c(F)c12 [Compound 26, N-ethyl-2-(4-fluoro-5-methoxy-1H-indol-3-yl)-N-methylethan-1-amine]	–	–	–	7.00	9.50	greater stability in human microsomes versus the DMT analogs	8.75	general locomotion at the social interaction test (C57BL/6J mice; mice): no effects on general locomotion; corner time (anxiety-like behavior) (C57BL/6J mice; stressed mice): rescued; social interaction deficit induced by chronic social defeat stress (C57BL/6J mice; stressed mice, test 24 hr post drug, listed as 4-F, 5-MeO-MET): rescued; also recorded: rescuing the social interaction deficit; pEC50 (5-HT2B): 7.18; Emax (5-HT2B): 39%; pEC50 (5-HT2A [6]): 6.64; Emax (5-HT2A [6]): 90%
CCCN(C)CCc1c[nH]c2ccc(OC)c(F)c12 [Compound 28, N-(2-(4-fluoro-5-methoxy-1H-indol-3-yl)ethyl)-N-methylpropan-1-amine]	–	–	–	6.94	9.38	greater stability in human microsomes versus the DMT analogs	8.51	pEC50 (5-HT2B): 7.14; Emax (5-HT2B): 47%; MAO A metabolism (MAO-A): markedly slower MAO A metabolism versus the DMT analogs; pEC50 (5-HT2A [6]): 6.60; Emax (5-HT2A [6]): 106%
CCCN(CC)CCc1c[nH]c2ccc(OC)c(F)c12 [Compound 29, N-ethyl-(2-(4-fluoro-5-methoxy-1H-indol-3-yl)ethyl)propan-1-amine]	–	–	–	6.81	9.82	greater stability in human microsomes versus the DMT analogs	9.02	–
C=CCN(C)CCc1c[nH]c2ccc(OC)c(F)c12 [Compound 34, N-(2-(4-fluoro-5-methoxy-1H-indol-3-yl)ethyl)-N-methylprop-2-en-1-amine]	–	–	–	6.81	8.59	greater stability in human microsomes versus the DMT analogs	8.08	–
CN(C)CCc1c[nH]c2ccc(O)c(F)c12 [Compound 40, 3-(2-(dimethylamino)ethyl)-4-fluoro-1H-indol-5-ol]	7.46	5.68	1.13	8.13	9.60	–	8.95	–
CSc1ccc2[nH]cc(CCN(C)C)c2c1 [Compound 67, N,N-dimethyl-2-(5-(methylthio)-1H-indol-3-yl)ethan-1-amine]	30.1	30.5	11.7	7.52	8.70	–	7.93	pEC50 (5-HT1A A365N; pEC50, Gi1 BRET, 5-HT1A A365N^6.55): 7.52
CSc1ccc2[nH]cc(CCN3CCCC3)c2c1 [Compound 69, 5-(methylthio)-3-(2-(pyrrolidin-1-yl)ethyl)-1H-indole]	175	5.08	1.05	6.76	9.29 and 9.30	–	8.98	–
CCN(CC)C(=O)[C@@H]1C=C2c3cccc4[nH]cc(c34)C[C@H]2N(C)C1 [LSD, reference compound]	–	–	–	–	–	–	–	Efficacy as %5HT 5-HT2A BRET Gq (5-HT2A [3]; Table 6, commercial ligands): 82.4 %5HT; effect of 5-HT2A V366N mutation on potency and efficacy (5-HT2A V366N; mutant vs wildtype 5-HT2A): increase in signaling efficacy
CC(=O)CC(c1ccccc1)c1c(O)c2ccccc2oc1=O (stereo not drawn) [Warfarin]	–	–	–	–	–	–	–	% Recovery [7]: 108.1%; % Compound remaining at 4 h ([7]; 4 h): 108.8%; % Recovery [8]: 90.9%; % Unbound [8]: 6.4%; fu [8]: 0.064; % Compound remaining at 4 h ([8]; 4 h): 103.3%
